According to patent publication US8580763B2, “2, 6-dinitrogen-containing substituted purine derivatives, the preparation and uses thereof” (Zhanggui Wu, priority 2007, dated 2013):
Values belong to the compound of their own block, whether it stands above or below them.

Key:
[1] = tested on: non-small cell lung cancer; test: anticancer activity in vitro (SRB, MTT), non-small cell lung cancer; assay type: cell-based; conditions: action time about 72 h
Procedure: (§1) Antitumor activity tests in vitro and in vivo are carried out to the parital compounds prepared from the above examples. Wherein the method of SRB, MTT is used in vitro, and the action time is about 72 h. Inhibitory effects of the compounds on the growth of mouse Conlon26 cancer are shown in Table 2, inhibitory effects of the compounds on the growth of mouse S180 sarcoma are shown in Table 3.

colon cancer HT-29 = test: anticancer activity in vitro (SRB, MTT), colon cancer HT-29; assay type: cell-based; conditions: Homo sapiens, action time about 72 h
Procedure: as §1

[2] = tested on: human liver cancer Bel-7402; test: anticancer activity in vitro (SRB, MTT), human liver cancer Bel-7402; assay type: cell-based; conditions: action time about 72 h
Procedure: as §1

lymph cancer Ramos = test: anticancer activity in vitro (SRB, MTT), lymph cancer Ramos; assay type: cell-based; conditions: Homo sapiens, action time about 72 h
Procedure: as §1

mouse Colon26 cancer = test: inhibitory effects on the growth of mouse Colon26 cancer in vivo; conditions: Colon26 mice; for Initial body weight: baseline
Procedure: as §1

mouse S180 sarcoma = test: inhibitory effects on the growth of mouse S180 sarcoma in vivo; conditions: S180 mice; for Initial body weight: baseline
Procedure: as §1

[3] = tested on: four different cancer cells; test: antitumor activity in vitro, summary over the four cancer cells of Table 1; assay type: cell-based; conditions: summary of Table 1
Procedure: as §1
Compared with compound I, compound XX has better antitumor effects.

Compound: COc1cccc2c1C(=O)c1c(O)c3c(c(O)c1C2=O)C[C@@](O)(C(=O)CO)C[C@@H]3O[C@H]1C[C@H](N)[C@H](O)[C@H](C)O1 [ADR, adriamycin, reference compound]
IC50 [1]: 0.05 µM
IC50 (colon cancer HT-29): 0.38 µM
IC50 [2]: 0.02 µM
IC50 (lymph cancer Ramos): 0.19 µM

Compound: CN1CCN(c2nc(Nc3ccc4ncccc4c3)nc3[nH]cnc23)CC1 [Compound XII]
End body weight (mouse Colon26 cancer; 100 mg/kg p.o.): 19.16 g
Inhibition rate (mouse Colon26 cancer; 100 mg/kg p.o.): 35.18%
Tumor removed body weight (mouse Colon26 cancer; 100 mg/kg p.o.): 17.98 g
Tumor weight (mouse Colon26 cancer; 100 mg/kg p.o.): 1.19 g
Initial body weight (mouse Colon26 cancer; 100 mg/kg p.o.): 19.06 g
End body weight (mouse Colon26 cancer; 150 mg/kg p.o.): 18.28 g
Inhibition rate (mouse Colon26 cancer; 150 mg/kg p.o.): 50.16%
Tumor removed body weight (mouse Colon26 cancer; 150 mg/kg p.o.): 17.36 g
Tumor weight (mouse Colon26 cancer; 150 mg/kg p.o.): 0.91 g
Initial body weight (mouse Colon26 cancer; 150 mg/kg p.o.): 19.16 g
End body weight (mouse S180 sarcoma; 100 mg/kg p.o.): 22.58 g
Inhibition rate (mouse S180 sarcoma; 100 mg/kg p.o.): 28.19%
Tumor removed body weight (mouse S180 sarcoma; 100 mg/kg p.o.): 20.94 g
Tumor weight (mouse S180 sarcoma; 100 mg/kg p.o.): 1.63 g
Initial body weight (mouse S180 sarcoma; 100 mg/kg p.o.): 19.22 g
End body weight (mouse S180 sarcoma; 200 mg/kg p.o.): 21.35 g
Inhibition rate (mouse S180 sarcoma; 200 mg/kg p.o.): 46.96%
Tumor removed body weight (mouse S180 sarcoma; 200 mg/kg p.o.): 20.14 g
Tumor weight (mouse S180 sarcoma; 200 mg/kg p.o.): 1.21 g
Initial body weight (mouse S180 sarcoma; 200 mg/kg p.o.): 19.46 g

Compound: c1cnc2ccc(Nc3nc(N4CCCC4)c4nc[nH]c4n3)cc2c1 [Compound IV]
IC50 [1]: 2.28 µM
IC50 (colon cancer HT-29): 0.38 µM
IC50 [2]: 0.67 µM
IC50 (lymph cancer Ramos): 0.67 µM
End body weight (mouse Colon26 cancer; 100 mg/kg p.o.): 19.32 g
Inhibition rate (mouse Colon26 cancer; 100 mg/kg p.o.): 33.31%
Tumor removed body weight (mouse Colon26 cancer; 100 mg/kg p.o.): 18.10 g
Tumor weight (mouse Colon26 cancer; 100 mg/kg p.o.): 1.22 g
Initial body weight (mouse Colon26 cancer; 100 mg/kg p.o.): 20.09 g
End body weight (mouse Colon26 cancer; 150 mg/kg p.o.): 18.41 g
Inhibition rate (mouse Colon26 cancer; 150 mg/kg p.o.): 54.45%
Tumor removed body weight (mouse Colon26 cancer; 150 mg/kg p.o.): 17.57 g
Tumor weight (mouse Colon26 cancer; 150 mg/kg p.o.): 0.83 g
Initial body weight (mouse Colon26 cancer; 150 mg/kg p.o.): 20.10 g
End body weight (mouse S180 sarcoma; 100 mg/kg p.o.): 20.77 g
Inhibition rate (mouse S180 sarcoma; 100 mg/kg p.o.): 31.95%
Tumor removed body weight (mouse S180 sarcoma; 100 mg/kg p.o.): 19.22 g
Tumor weight (mouse S180 sarcoma; 100 mg/kg p.o.): 1.55 g
Initial body weight (mouse S180 sarcoma; 100 mg/kg p.o.): 18.99 g
End body weight (mouse S180 sarcoma; 200 mg/kg p.o.): 19.12 g
Inhibition rate (mouse S180 sarcoma; 200 mg/kg p.o.): 55.37%
Tumor removed body weight (mouse S180 sarcoma; 200 mg/kg p.o.): 18.10 g
Tumor weight (mouse S180 sarcoma; 200 mg/kg p.o.): 1.02 g
Initial body weight (mouse S180 sarcoma; 200 mg/kg p.o.): 19.49 g
antitumor activity to four different cancer cells (in words) [3]: the best

Compound: O=P1(N(CCCl)CCCl)NCCCO1 (centres unmarked) [CTX, cyclophosphamide, reference compound]
End body weight (mouse Colon26 cancer; 30 mg/kg i.p.): 20.33 g
Inhibition rate (mouse Colon26 cancer; 30 mg/kg i.p.): 78.14%
Tumor removed body weight (mouse Colon26 cancer; 30 mg/kg i.p.): 19.93 g
Tumor weight (mouse Colon26 cancer; 30 mg/kg i.p.): 0.40 g
Initial body weight (mouse Colon26 cancer; 30 mg/kg i.p.): 20.03 g
End body weight (mouse S180 sarcoma; 30 mg/kg i.p.): 20.31 g
Inhibition rate (mouse S180 sarcoma; 30 mg/kg i.p.): 79.82%
Tumor removed body weight (mouse S180 sarcoma; 30 mg/kg i.p.): 19.85 g
Tumor weight (mouse S180 sarcoma; 30 mg/kg i.p.): 0.46 g
Initial body weight (mouse S180 sarcoma; 30 mg/kg i.p.): 19.65 g

Compound: CCN1CCN(c2nc(Nc3ccc4ncccc4c3)nc3[nH]cnc23)CC1 [Compound XV]
IC50 [1]: 3.36 µM
IC50 (colon cancer HT-29): 4.27 µM
IC50 [2]: 5.46 µM
IC50 (lymph cancer Ramos): 2.87 µM
antitumor activity to four different cancer cells (in words) [3]: higher antitumor activity

More lines, now with the values ahead:

IC50 [1]: 61.4 µM
IC50 (colon cancer HT-29): 81.4 µM
IC50 [2]: 80.2 µM
IC50 (lymph cancer Ramos): 51.9 µM
Compound: c1ccc(Nc2nc(NC3CC3)c3nc[nH]c3n2)nc1 [Compound XXVIII]

IC50 [1]: 11.7 µM
IC50 (colon cancer HT-29): > 100 µM
IC50 [2]: > 100 µM
IC50 (lymph cancer Ramos): > 100 µM
Compound: FC(F)(F)c1cc(Nc2nc(NC3CC3)c3nc[nH]c3n2)cc2cccnc12 [Compound XXIV]

IC50 [1]: 13.2 µM
IC50 (colon cancer HT-29): 5.72 µM
IC50 [2]: 5.91 µM
IC50 (lymph cancer Ramos): 2.63 µM
Compound: COc1cc(Nc2nc(NC3CC3)c3nc[nH]c3n2)cc2cccnc12 [Compound XXIII]

IC50 [1]: 7.55 µM
IC50 (colon cancer HT-29): 16.8 µM
IC50 [2]: 4.89 µM
IC50 (lymph cancer Ramos): 4.14 µM
Compound: c1cc(Nc2nc(NC3CC3)c3nc[nH]c3n2)ccn1 [Compound XXIX]
